Our source for the remaining binding values is article PMC8799717, “Pharmacological targeting PIKfyve and tubulin as an effective treatment strategy for double-hit lymphoma” (Cell Death Discovery, 2022).

What all share (assay): biochemical
What all share (design): KINOMEscan active-site-directed competition binding panel, 468 kinases, percent of DMSO control at 1 uM
Details in all cases: KINOMEscan binding, percent of DMSO control; read-out: Ctrl%

Assay [1] concerns the target MAP3K15 (Homo sapiens, UniProt Q6ZN16).
Assay [2] has as its target T1, MLK3 (Homo sapiens, UniProt Q16584).
T1 construct: gene MAP3K11

The target of assay [3] is TYRO3 (Homo sapiens, UniProt Q06418).
The target of assay [4] is T2, JNK3 (Homo sapiens, UniProt P53779).
T2 construct: gene MAPK10

In assay [5] the target is LRRK2(G2019S) (Homo sapiens, UniProt Q5S007, G2019S).
Assay [6] deals with CAMK1G (Homo sapiens, UniProt Q96NX5).
The target of assay [7] is RET(V804M) (Homo sapiens, UniProt P07949, V804M).
The target in assay [8] is T3, ERK2 (Homo sapiens, UniProt P28482).
T3 construct: gene MAPK1

For assay [9], the target named is NEK11 (Homo sapiens, UniProt Q8NG66).
The target in assay [10] is TGFBR1 (Homo sapiens, UniProt P36897).
Assay [11] has as its target HIPK2 (Homo sapiens, UniProt Q9H2X6).
Assay [12] addresses EGFR(L747-T751del,Sins) (Homo sapiens, UniProt P00533, DEL747-750/T751S).
The target in assay [13] is CDK5 (Homo sapiens, UniProt Q00535).
The target of assay [14] is PIK3CG (Homo sapiens, UniProt P48736).
The target in assay [15] is T4, AMPK-alpha2 (Homo sapiens, UniProt P54646).
T4 construct: gene PRKAA2

For assay [16], the target named is TNNI3K (Homo sapiens, UniProt Q59H18).
Assay [17] has as its target T5, MEK2 (Homo sapiens, UniProt P36507).
T5 construct: gene MAP2K2

The target of assay [18] is CDK2 (Homo sapiens, UniProt P24941).
In assay [19] the target is BRSK2 (Homo sapiens, UniProt Q8IWQ3).
Assay [20] concerns the target T6, LZK (Homo sapiens, UniProt O43283).
T6 construct: gene MAP3K13

Assay [21] has as its target T7, TIE2 (Homo sapiens, UniProt Q02763).
T7 construct: gene TEK

The target in assay [22] is PRKCE (Homo sapiens, UniProt Q02156).
The target of assay [23] is T8, PIP5K2C (Homo sapiens, UniProt Q8TBX8).
T8 construct: gene PIP4K2C

The target in assay [24] is HIPK1 (Homo sapiens, UniProt Q86Z02).

Structures are written as SMILES.

Chain of TYRO3 (Q06418 whole entry): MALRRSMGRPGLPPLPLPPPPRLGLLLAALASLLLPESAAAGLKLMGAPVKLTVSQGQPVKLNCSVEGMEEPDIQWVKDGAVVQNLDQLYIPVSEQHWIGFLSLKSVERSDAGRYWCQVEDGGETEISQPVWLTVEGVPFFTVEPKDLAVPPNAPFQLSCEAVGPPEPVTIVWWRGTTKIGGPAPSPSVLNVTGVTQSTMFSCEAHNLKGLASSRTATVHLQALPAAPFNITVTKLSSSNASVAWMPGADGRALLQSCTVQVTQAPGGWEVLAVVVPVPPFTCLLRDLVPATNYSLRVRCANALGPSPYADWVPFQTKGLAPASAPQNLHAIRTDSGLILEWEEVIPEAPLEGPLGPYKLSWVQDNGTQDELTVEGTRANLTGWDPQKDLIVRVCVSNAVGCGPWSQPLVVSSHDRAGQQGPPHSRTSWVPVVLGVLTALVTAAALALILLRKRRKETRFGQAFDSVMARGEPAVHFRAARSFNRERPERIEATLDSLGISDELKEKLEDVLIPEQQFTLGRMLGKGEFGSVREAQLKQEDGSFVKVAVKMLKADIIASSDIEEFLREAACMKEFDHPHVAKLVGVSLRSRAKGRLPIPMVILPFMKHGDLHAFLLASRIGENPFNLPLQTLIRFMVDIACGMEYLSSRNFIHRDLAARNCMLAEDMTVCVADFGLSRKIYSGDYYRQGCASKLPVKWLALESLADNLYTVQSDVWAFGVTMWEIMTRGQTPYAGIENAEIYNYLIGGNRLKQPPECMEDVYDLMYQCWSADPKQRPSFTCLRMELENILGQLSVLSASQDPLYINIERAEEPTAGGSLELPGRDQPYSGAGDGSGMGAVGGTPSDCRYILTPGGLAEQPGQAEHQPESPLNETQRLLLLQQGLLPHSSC
Chain of LRRK2(G2019S) (Q5S007 whole entry G2019S): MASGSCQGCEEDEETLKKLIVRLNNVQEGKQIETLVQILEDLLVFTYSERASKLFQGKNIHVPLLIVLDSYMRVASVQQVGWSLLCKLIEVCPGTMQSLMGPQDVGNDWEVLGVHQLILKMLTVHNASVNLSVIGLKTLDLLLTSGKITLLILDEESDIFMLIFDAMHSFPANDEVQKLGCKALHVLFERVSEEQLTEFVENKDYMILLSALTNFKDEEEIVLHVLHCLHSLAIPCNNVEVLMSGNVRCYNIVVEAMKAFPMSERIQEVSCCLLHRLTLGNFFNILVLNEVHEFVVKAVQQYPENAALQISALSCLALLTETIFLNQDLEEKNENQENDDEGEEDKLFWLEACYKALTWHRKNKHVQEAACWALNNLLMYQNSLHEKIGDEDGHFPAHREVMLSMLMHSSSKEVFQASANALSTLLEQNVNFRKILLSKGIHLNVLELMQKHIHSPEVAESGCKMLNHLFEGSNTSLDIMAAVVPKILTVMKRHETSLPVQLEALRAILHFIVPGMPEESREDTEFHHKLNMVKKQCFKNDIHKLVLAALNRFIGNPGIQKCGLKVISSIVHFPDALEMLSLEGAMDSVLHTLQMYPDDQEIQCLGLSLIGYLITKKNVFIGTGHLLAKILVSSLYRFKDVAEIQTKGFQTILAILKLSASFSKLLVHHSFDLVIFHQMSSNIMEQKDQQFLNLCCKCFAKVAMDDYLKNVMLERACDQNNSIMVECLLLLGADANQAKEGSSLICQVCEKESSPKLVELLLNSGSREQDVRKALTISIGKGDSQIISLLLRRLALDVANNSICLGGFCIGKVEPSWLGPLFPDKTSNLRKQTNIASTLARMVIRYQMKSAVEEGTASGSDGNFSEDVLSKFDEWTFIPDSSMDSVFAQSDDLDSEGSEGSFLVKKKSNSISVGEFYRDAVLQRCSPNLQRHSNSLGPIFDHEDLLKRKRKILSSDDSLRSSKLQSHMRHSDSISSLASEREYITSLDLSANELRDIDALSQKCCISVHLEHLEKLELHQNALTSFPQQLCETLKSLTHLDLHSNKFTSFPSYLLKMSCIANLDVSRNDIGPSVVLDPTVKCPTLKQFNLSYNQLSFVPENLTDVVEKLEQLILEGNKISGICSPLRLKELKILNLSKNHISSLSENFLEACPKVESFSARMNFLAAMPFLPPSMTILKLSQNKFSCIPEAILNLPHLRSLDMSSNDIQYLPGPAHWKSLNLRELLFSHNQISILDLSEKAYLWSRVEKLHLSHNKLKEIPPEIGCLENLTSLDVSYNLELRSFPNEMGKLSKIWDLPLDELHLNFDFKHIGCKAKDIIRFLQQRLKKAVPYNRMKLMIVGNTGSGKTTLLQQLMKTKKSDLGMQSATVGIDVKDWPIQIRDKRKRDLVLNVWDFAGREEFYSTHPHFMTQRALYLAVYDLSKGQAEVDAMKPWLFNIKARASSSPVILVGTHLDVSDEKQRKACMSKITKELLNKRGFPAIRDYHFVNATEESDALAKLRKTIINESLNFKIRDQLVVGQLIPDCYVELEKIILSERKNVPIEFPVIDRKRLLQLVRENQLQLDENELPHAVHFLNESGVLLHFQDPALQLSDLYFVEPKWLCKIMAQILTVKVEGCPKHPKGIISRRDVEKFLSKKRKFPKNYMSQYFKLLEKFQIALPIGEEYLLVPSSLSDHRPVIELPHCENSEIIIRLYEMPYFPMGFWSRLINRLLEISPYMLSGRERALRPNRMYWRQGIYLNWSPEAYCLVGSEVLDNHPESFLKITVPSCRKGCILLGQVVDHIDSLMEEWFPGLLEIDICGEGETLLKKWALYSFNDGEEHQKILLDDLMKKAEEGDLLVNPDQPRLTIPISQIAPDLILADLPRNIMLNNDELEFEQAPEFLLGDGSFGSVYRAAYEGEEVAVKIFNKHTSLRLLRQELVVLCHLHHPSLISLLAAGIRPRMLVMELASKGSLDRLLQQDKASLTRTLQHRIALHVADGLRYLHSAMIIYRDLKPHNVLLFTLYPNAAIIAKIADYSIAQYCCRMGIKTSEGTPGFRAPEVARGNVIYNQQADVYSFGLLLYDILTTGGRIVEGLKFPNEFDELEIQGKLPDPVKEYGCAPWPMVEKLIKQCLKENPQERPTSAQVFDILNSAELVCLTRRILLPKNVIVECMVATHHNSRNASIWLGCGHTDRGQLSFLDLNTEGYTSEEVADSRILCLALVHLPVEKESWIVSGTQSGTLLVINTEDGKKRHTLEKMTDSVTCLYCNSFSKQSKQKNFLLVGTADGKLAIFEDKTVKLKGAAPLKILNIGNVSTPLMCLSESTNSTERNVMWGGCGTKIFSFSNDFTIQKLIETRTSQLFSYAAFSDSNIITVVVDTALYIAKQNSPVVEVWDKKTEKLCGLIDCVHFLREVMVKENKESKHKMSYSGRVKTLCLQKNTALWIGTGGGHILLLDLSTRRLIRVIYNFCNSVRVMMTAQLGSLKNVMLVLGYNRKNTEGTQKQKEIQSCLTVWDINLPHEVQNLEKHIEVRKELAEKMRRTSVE
T8 sequence (Q8TBX8 whole entry): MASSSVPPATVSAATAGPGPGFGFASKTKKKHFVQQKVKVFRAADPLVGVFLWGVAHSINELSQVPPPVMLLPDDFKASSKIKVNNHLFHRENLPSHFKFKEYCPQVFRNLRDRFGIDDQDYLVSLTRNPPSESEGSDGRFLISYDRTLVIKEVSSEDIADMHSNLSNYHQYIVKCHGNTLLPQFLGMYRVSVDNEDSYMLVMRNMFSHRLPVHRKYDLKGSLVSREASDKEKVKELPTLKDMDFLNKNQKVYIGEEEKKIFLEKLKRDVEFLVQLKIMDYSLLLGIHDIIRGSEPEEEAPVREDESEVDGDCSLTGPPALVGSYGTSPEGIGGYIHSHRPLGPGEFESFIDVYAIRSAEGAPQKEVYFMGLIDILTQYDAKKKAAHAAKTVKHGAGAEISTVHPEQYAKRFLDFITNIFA
Chain of TNNI3K (Q59H18 whole entry): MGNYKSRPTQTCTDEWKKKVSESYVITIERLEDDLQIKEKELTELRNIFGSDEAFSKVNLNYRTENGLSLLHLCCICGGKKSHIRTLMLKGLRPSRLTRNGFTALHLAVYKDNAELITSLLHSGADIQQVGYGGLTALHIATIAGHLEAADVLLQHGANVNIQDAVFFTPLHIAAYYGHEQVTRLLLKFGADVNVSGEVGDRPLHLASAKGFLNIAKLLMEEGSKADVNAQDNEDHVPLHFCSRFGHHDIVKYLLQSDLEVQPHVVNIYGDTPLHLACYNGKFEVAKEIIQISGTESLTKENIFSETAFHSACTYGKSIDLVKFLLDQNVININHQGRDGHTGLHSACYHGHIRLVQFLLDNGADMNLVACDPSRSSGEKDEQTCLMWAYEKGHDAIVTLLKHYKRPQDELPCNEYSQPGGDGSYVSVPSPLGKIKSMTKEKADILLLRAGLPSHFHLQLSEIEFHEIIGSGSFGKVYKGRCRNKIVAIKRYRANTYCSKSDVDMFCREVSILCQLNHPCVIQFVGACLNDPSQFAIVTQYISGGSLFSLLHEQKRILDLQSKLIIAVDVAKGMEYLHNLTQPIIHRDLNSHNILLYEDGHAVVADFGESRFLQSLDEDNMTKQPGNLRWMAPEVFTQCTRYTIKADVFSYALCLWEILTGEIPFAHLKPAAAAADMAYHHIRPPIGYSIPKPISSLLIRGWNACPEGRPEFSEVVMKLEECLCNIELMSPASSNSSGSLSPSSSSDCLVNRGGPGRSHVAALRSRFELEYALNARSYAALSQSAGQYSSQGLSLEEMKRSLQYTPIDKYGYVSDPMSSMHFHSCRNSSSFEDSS
T3 sequence (P28482 whole entry): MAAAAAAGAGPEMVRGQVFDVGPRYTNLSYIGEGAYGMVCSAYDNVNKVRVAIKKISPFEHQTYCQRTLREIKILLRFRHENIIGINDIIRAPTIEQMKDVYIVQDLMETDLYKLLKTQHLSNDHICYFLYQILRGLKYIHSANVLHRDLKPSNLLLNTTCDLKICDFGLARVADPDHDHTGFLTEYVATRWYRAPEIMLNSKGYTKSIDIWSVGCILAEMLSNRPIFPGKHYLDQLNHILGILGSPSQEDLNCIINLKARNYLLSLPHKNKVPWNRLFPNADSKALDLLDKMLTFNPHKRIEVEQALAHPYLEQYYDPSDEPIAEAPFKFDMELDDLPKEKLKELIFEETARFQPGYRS

For the compound `Cc1ccc(NC(=O)c2cccc(C(F)(F)F)c2)cc1Nc1cc(-c2cccnc2)nc2[nH]ccc12` [HZX-02-059], the remaining binding at 1 µM in assay [1] was 53%; in assay [2], 87%; in assay [3], 100%; in assay [4], 96%; in [5], 92%; in [6] it was 100%. For the same compound, the remaining binding at 1 µM turned out to be 95% in assay [7]; 100% in assay [8]; 100% in [9]; 76% in assay [10]; 100% in assay [11]; 77% in assay [12]. For the same compound, the remaining binding at 1 µM in [13] came to 100%; in [14], 96%; in [15] it was 90%; in assay [16], 6.3%; in assay [17], 100%; in [18], 96%. The remaining binding at 1 µM is 99% in [19]; 100% in assay [20]; 66% in assay [21]; 96% in assay [22]; 43% in assay [23]; 74% in [24].
